For 1 molecule, Km results are on record in PMC11596957, “Biological Characteristics of a Novel Bibenzyl Synthase (DoBS1) Gene from Dendrobium officinale Catalyzing Dihydroresveratrol Synthesis” (Molecules, 2024).

This assay has as its target T1, DoBS1 (bibenzyl synthase) (Dendrobium officinale, UniProt Z9NEY1S5B3).
T1 construct: type III PKS family known as homodimer
T1 sequence (Z9NEY1S5B3 1-390): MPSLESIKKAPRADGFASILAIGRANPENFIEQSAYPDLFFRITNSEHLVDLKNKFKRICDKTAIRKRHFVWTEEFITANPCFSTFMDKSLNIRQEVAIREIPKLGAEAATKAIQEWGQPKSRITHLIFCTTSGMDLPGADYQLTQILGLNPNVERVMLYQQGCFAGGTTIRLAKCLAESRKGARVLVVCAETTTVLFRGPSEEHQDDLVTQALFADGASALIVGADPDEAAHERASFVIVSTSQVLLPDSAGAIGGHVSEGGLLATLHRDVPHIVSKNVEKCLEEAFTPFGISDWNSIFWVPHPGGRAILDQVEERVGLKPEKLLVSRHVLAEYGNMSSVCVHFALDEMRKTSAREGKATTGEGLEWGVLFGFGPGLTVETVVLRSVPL
Nature of the assay: HPLC of dihydroresveratrol formation, Michaelis-Menten fit. The assay is classed as biochemical. As to conditions: co-substrate malonyl-CoA (2.5 mM in the described assay), 37 °C, 30 min; text gives the Km 'for DHR' production, Figure 7 legend names p-coumaroyl-CoA as varied substrate; unit printed as mmol. An excerpt:
HPLC of dihydroresveratrol formation, Michaelis-Menten fit on DoBS1 (bibenzyl synthase) | Kinetic analysis of DoBS1 toward p-coumaroyl-CoA

On to `CC(C)(COP(=O)(O)OP(=O)(O)OC[C@H]1O[C@@H](n2cnc3c(N)ncnc32)[C@H](O)[C@@H]1OP(=O)(O)O)[C@@H](O)C(=O)NCCC(=O)NCCSC(=O)/C=C/c1ccc(O)cc1` [p-coumaroyl-CoA], for which the Km came out at 0.30 ± 0.08 mmol.
